Test results: patent US9896423B2, “Deuterium substituted 1-[2-(2,4-dimethyl-phenylsulfanyl)-phenyl]piperazine compound or derivatives thereof, and pharmaceutical composition and use thereof” (Jiangsu Jibeier Pharmaceutical Co. Ltd., priority 2014, dated 2018)
Structures can show the parent of a compound that is named as a salt.

Tests used:
Male SD rats = assay: Rats swimming test; assay type: in vivo; conditions: for effect on length of time that the rats stopped swimming vs blank control: 14 days; for Duration without Move within 5 min: rats swimming, gavage 14 days, n = 10, x ± s
Description: The following method is used for testing the antidepression effect of the compound of the present application. ICR mice or SD rats, gavaged for two successive weeks, were subjected to mice swimming test, mice tail suspension test and rats swimming test. See below for details of the tests and results.
Male SD rats weighing 200 to 220 g were used and they were fed with sterilized standard feed. The medicaments were the same as those in the mice tail suspension test, but the dosage administered to rats was half of that to mice.
Drug solution preparation: Since the dosage applied on rats was 1 ml/100 g body weight, the medicament solutions used in this test had the same concentrations as those used on mice.
The apparatus was the same as that in the […].
The rats were fasted for 4 hours, put in a round glass tank (ø 18 cm×h 40 cm, with water of 15 cm depth and at a temperature of 25° C.), and were allowed to swim for 15 min. One tank accommodated one rat at a time. The tank was refilled with clean water for another rat after one rat finished swimming. The rats were dried with a hot-air blower after swimming.
The forty rats were divided into 4 groups, each of which has 10 rats, according to the Excel random grouping.
The medicaments were correspondingly administered 1 ml/100 g body weight by gavage, once a day, to the animals in each test group for 14 successive days. The rat swimming test was performed one hour later after the last administration.
The data was given as “average±standard deviation” (x±s). One-way analysis of variance (ANOVA) was used for data difference statistics. Differences among the groups were determined by P<0.05.

[1] = single oral dose of [14C]-labeled vortioxetine; cited from earlier work

Compound	effect on length of time that the rats stopped swimming vs blank control (Male SD rats; 0.75 mg/kg gavage)	effect on length of time that the rats stopped swimming vs blank control (Male SD rats; 1.5 mg/kg gavage)	Duration without Move within 5 min (Male SD rats; 0.75 mg/kg) [s]	Duration without Move within 5 min (Male SD rats; 1.5 mg/kg) [s]	radioactive metabolites recovered in the feces [1] [%]	radioactive metabolites recovered in the urine [1]
[2H]C([2H])([2H])c1ccc(Sc2ccccc2N2CCNCC2)c(C([2H])([2H])[2H])c1 [XX, 1-{2-[2,4-bis(trideuteriomethyl)phenylsulfanyl]phenyl}piperazine hydrobromic acid salt]	showed a tendency to shorten	markedly shortened	242.4 ± 43.2	226.2 ± 43.2	–	–
Cc1ccc(Sc2ccccc2N2CCNCC2)c(C)c1 [YY, 1-[2-(2,4-dimethyl-phenylsulfanyl)-phenyl]piperazine]	–	did not shorten	–	267.8 ± 27.0	~26	approximately 59%
